Reference: Sander's compilation of Henry's law constants (doi:10.1080/00039896.1979.10667371)

Assay: Henry solubility constant Hcp at 310 K (mol/(m3 Pa))
Conditions: reference: Sato and Nakajima (1979b)

| SMILES | Henry solubility constant Hcp at 310 K |
| --- | --- |
| ClC(Cl)C(Cl)Cl [1,1,2,2-tetrachloroethane] | 0.014 |
| CC(Cl)(Cl)Cl [1,1,1-trichloroethane] | 0.00036 |
| CCCCCCl [1-chloropentane] | 0.00027 |
| CC(Cl)CCl (stereo not drawn) [1,2-dichloropropane] | 0.0021 |
| CCCCCl [1-chlorobutane] | 0.00033 |
| ClC(Cl)=C(Cl)Cl [tetrachloroethene] | 0.00017 |
| Clc1ccccc1 [chlorobenzene] | 0.0016 |
| ClCC(Cl)(Cl)Cl [1,1,1,2-tetrachloroethane] | 0.0021 |
| ClC(Cl)(Cl)Cl [tetrachloromethane] | 9.7e-05 |
| ClCCl [dichloromethane] | 0.0028 |
| ClC=C(Cl)Cl [trichloroethene] | 0.0005 |
| ClCC(Cl)Cl [1,1,2-trichloroethane] | 0.0066 |
| Clc1cccc(Cl)c1 [1,3-dichlorobenzene] | 0.0021 |
